# Source: patent US20170042955A1, “Novel Anti-Fungal Composition” (priority 2014, published 2017)
# Experiments:
# [1] = test system: proteinase of C. albicans NCIM 3074; assay: Protease inhibitory activity, native gel electrophoresis (casein zymogram); format: cell-based, Candida albicans; conditions: 100 μg mL-1 Lawsone; 24-48 h at 37° C.; FIG. 6
# Experimental: (§1) C. albicans NCIM 3074 culture was grown in Sabouraud broth at 37° C. for 12 h. The culture was centrifuged at 7000 rpm for 5 mm to pellet the cells. The cell pellet was washed twice with normal saline and centrifuged to collect the pellets. 100 μL of Candida albicans cell suspension was added to proteinase induction medium containing 1% glucose, 3% yeast carbon base and 1% BSA (Bovine Serum Albumin). […] This was added to respective test tubes immediately after the inoculation of culture. The mixture was incubated for 24-48 h at 37° C. in a shaker at 150 rpm. Culture broth was centrifuged at 7000 rpm for 15 min to remove cells. Cells were lysed and cell lysis was used for zymographic studies after protein estimation. Zymogram was performed with 1% casein incorporated in the acrylamide gel to detect the proteinase inhibition activity. The proteinase inhibitory activity was indicated by no cleavage of casein (no band formation) and it can be compared to complete cleavage of casein by proteinases (white band formation) in control groups. […] Subsequently, 1 ml of 60% perchloric acid was added and the final volume was made to 9.1 ml using distilled water to this 0.5 ml of molybdate II reagent and 0.4 ml ANSA reagent mixture was added. The tubes were shaken well and heated in a boiling water bath for 8 mm exactly. The blue color developed was read using spectrophotometer at 680 nm.
# Candida sp. = conditions: literature study (13); cited from earlier work
# C. albicans = assay: Antifungal activity by modified Kerby-Bauer disc method; format: cell-based, Candida albicans
# Experimental: • Susceptibility disks (5 mm in diameter) were impregnated with 0.5 mg of desired compound(s)/extract dissolved in DMSO, and placed on Sabouraud dextrose agar plates separately inoculated with the C. albicans and C. glabrata. […] Disc containing only DMSO was used as a negative control. • Anticandidal activity against Candida species: • Dose dependent anti-candidal activity was observed up on treatment using Lawsoniainermisextract against tested C. albicans and C. glabrata (Table 1).
# [2] = test system: Phospholipase of C. albicans; assay: Phospholipase inhibitory activity, spectrophotometric analysis; format: cell-based, Candida albicans; conditions: Lawsone 100 μg/ml
# Experimental: as §1
smiles,measurement,setting,value
O=C1C=C(O)C(=O)c2ccccc21 [Lawsone],"Zymogram result, casein cleavage",[1],intact Casein (no band/less intense band formation)
same,Activity on Candida sp.,Candida sp.,there isn't appreciable activity
same,Inhibition of candidal growth,"C. albicans; C. albicans, all three concentrations 50, 100 and 200 μg/ml, FIG. 1",Complete inhibition of candidal growth
same,zone of inhibition at 50 µg/disc,C. albicans; Candida albicans,14 mm
same,zone of inhibition at 100 µg/disc,C. albicans; Candida albicans,16 mm
same,zone of inhibition at 200 µg/disc,C. albicans; Candida albicans,17 mm
same,% Inhibition of Phospholipase Enzyme Activity,[2]; compared to Control,77.78%
same,Phospholipase Enzyme Activity (O.D),[2]; read at 680 nm,0.02 O.D
